# From patent publication US20230332203A1, “RAPID ANTIBIOTIC SUSCEPTIBILITY TESTING” (IOWA STATE UNIVERSITY RESEARCH FOUNDATION, INC., priority 2022, published 2023)
# Columns and labels:
# [1] = system: Staphylococcus aureus 25923 (susceptible); assay: Microdroplet culture with D2O labeling, average mass of PG 32:0 by MALDI-MS (Orbitrap and Biotyper); type: cell-based; conditions: increasing methicillin concentration, 20% D2O, 4 hours
# Protocol: (§1) The disclosed method was tested using the Bruker Biotyper and the results were compared to data using the method that was previously established on an Orbitrap mass spectrometer. A common cell membrane lipid, phosphatidylglycerol (PG) 32:0 was used as an indicator. Since a higher average mass is indicative of more growth, a reduced average mass indicates susceptibility to methicillin. The Biotyper is an economical and more accessible instrument but has less resolution and more error in the measurements. However, data from the Biotyper results in the same conclusions when compared to data from the Orbitrap. […]
# (§2) μFocus samples were analyzed in negative ion mode using an Orbitrap Q Exactive HF mass spectrometer (Thermo Scientific, San Jose, CA) with a Spectroglyph MALDI source (Spectroglyph, Kennewick, WA) equipped with a 349 nm laser (Explorer One; Spectra Physics, Milpitas, CA) using a 500 Hz repetition rate and ˜4 μJ per shot. Samples were analyzed at 120,000 resolving power at m/z 200. Spots were analyzed using 60 μm spatial resolution to ensure a good representation of the sample and resulting spectra were averaged in Xcalibur. Masslists from averaged spectra were then exported to .csv files and average mass of membrane lipids were calculated using a custom Python script. […]
# [2] = system: methicillin-resistant Staphylococcus aureus 33591; assay: as above; type: cell-based; conditions: range of methicillin concentrations, 20% D2O, 4 hours
# Protocol: as §1, §2
compound,measurement,setting,value
COc1cccc(OC)c1C(=O)N[C@@H]1C(=O)N2[C@@H]1SC(C)(C)[C@@H]2C(=O)O [methicillin],effect on average mass of PG 32:0,[1],constant decrease
same,effect on average mass of PG 32:0,[2],does not decrease the average mass significantly
